Patent US9005575B2, “Arg-Gly-Asp-conjugated alpha-melanocyte stimulating hormone hybrid peptide for use in diagnosing and treating melanoma, including metastatic melanoma and methods related to same” (STC.UNM, priority 2009, dated 2015)
Positions of bridges follow the written chain, without caps; N, C: chain ends. Non-standard residues stand in square brackets, D forms with d. Residues, ends and D or L forms follow the SMILES beside them.

What was measured:
[1] = tested on: B16/F1 melanoma; assay: Biodistribution in B16/F1 melanoma-bearing C57 mice; format: in vivo; details: for Tumor uptake blocked by NDP-MSH: 6.1 nmol of NDP-MSH; for Tumor uptake decreased (blocked) by RGD co-injection: 3.5 μg (6.1 nmol) of RGD; for Tumor uptake with NDP-MSH co-injection as % of the tumor uptake without: 10 μg (6.1 nmol) NDP-MSH, 2 h after dose administration
Method: All the animal studies were conducted in compliance with Institutional Animal Care and Use Committee approval. The pharmacokinetics of ^99mTc-RGD-Lys-(Arg^11)CCMSH was determined in B16/F1 melanoma-bearing C57 female mice (Harlan, Indianapolis, Ind.). C57 mice were subcutaneously inoculated on the right flank with 1×10^6 B16/F1 cells. The weight of tumors reached approximately 0.2 g 10 days post cell inoculation. Each melanoma-bearing mouse was injected with 0.037 MBq of ^99mTc-RGD-Lys-(Arg^11)CCMSH via the tail vein. Groups of 5 mice were sacrificed at 0.5, 2, 4 and 24 h post-injection, and tumors and organs of interest were harvested, weighed and counted. Blood values were taken as 6.5% of the whole-body weight. The MC1 receptor specificity of the tumor uptake was determined at 2 h post-injection by co-injecting ^99mTc-RGD-Lys-(Arg^11)CCMSH with 10 μg (6.1 nmol) of unlabeled NDP-MSH, a linear α-MSH peptide analogue with picomolar affinity for the MC1 receptors present on murine melanoma cells. The co-injection of 3.5 μg (6.1 nmol) of RGD peptide was performed to determine the αvβ3 integrin specificity of the tumor uptake 2 h post-injection. Statistical analysis was performed using the Student's t-test for unpaired data.
All the animal studies were conducted in compliance with Institutional Animal Care and Use Committee approval. The pharmacokinetics of ^99mTc-RGD-Arg-(Arg^11)CCMSH was determined in B16/F1 melanoma-bearing C57 female mice (Harlan, Indianapolis, Ind.). C57 mice were subcutaneously inoculated on the right flank with 1×10^6 B16/F1 cells. The weight of tumors reached approximately 0.2 g 10 days post cell inoculation. Each melanoma-bearing mouse was injected with 0.037 MBq of ^99mTc-RGD-Arg-(Arg^11)CCMSH via the tail vein. Groups of 5 mice were sacrificed at 0.5, 2, 4 and 24 h post-injection, and tumors and organs of interest were harvested, weighed and counted. Blood values were taken as 6.5% of the whole-body weight. The MC1 receptor specificity of the tumor uptake was determined at 2 h post-injection by co-injecting ^99mTc-RGD-Arg-(Arg^11)CCMSH with 10 μg (6.1 nmol) of unlabeled NDP-MSH. The co-injection of 3.5 μg (6.1 nmol) of RGD peptide was performed to determine the αvβ3 integrin specificity of the tumor uptake at 2 h post-injection.

[2] = tested on: B16/F1 melanoma; assay: SPECT/CT imaging of melanoma; format: in vivo, C57 mouse; details: 2 h post-injection
Method: (§1) A B16/F1 melanoma-bearing C57 mouse was injected with 10.4 MBq of ^99mTc-RGD-Lys-(Arg^11)CCMSH via the tail vein. The mouse was anesthetized with 1.5% isoflurane for small animal SPECT/CT (Nano-SPECT/CT®, Bioscan) imaging 2 h post-injection. The 9-min CT imaging was immediately followed by the SPECT imaging of whole-body. The SPECT scans of 24 projections were acquired and total acquisition time was approximately 45 min. After the SPECT imaging, the mouse was euthanized with CO2 inhalation. Reconstructed data from SPECT and CT were visualized and co-registered using InVivoScope (Bioscan, Washington D.C.).
as §1, with “6.1” for “10.4”, “^99mTc-RGD-Arg-(Arg^11)CCMSH” for “^99mTc-RGD-Lys-(Arg^11)CCMSH”, “9-min.” for “9-min”

Row | Renal uptake values as % of those of ^99mTc-RGD-Lys-(Arg^11)CCMSH ([1]; 0.5, 2, 4 and 24 h post-injection) | Renal uptake value as % of that of ^99mTc-RGD-Lys-(Arg^11)CCMSH ([1]; 0.5 h post-injection) [%] | Tumor uptake value, times that of ^99mTc-RGD-Lys-(Arg^11)CCMSH ([1]; 0.5 h post-injection) [times] | Renal uptake value as % of that of ^99mTc-RGD-Lys-(Arg^11)CCMSH ([1]; 2 h post-injection) [%] | Tumor uptake value, times that of ^99mTc-RGD-Lys-(Arg^11)CCMSH ([1]; 2 h post-injection) [times] | Renal uptake value as % of that of ^99mTc-RGD-Lys-(Arg^11)CCMSH ([1]; 4 h post-injection) [%] | Tumor uptake value as % of the tumor uptake value 2 h post-injection ([1]; 4 h post-injection) [%] | Tumor uptake value, times that of ^99mTc-RGD-Lys-(Arg^11)CCMSH ([1]; 4 h post-injection) [times] | Renal uptake value as % of that of ^99mTc-RGD-Lys-(Arg^11)CCMSH ([1]; 24 h post-injection) [%] | Tumor/kidney uptake ratio, times that of ^99mTc-RGD-Lys-(Arg^11)CCMSH ([1]; 24 h post-injection) [times] | Kidneys, Percentage Injected Dose/gram ([1]; 4 h post-injection) [% ID/g] | Renal uptake value, times that of ^99mTc-(Arg^11)CCMSH ([1]; 4 h post-injection) [times] | Tumor uptake value, times that of ^99mTc-(Arg^11)CCMSH ([1]; 4 h post-injection) [times] | Tumor uptake value as % of the tumor uptake value 2 h post-injection ([1]; 24 h post-injection) [%] | Tumor uptake value, times that of ^99mTc-(Arg^11)CCMSH ([1]; 24 h post-injection) [times] | Renal uptake value, times that of ^188Re-dLys-(Arg^11)CCMSH ([1]; mouse, in vivo) [times] | Structure (SMILES) | Tumor uptake blocked by NDP-MSH ([1]; 2 h post-injection) [%] | Tumor uptake decreased (blocked) by RGD co-injection ([1]; 2 h post-injection) [%] | Tumor uptake with NDP-MSH co-injection as % of the tumor uptake without [1] [%] | Visualization of flank melanoma tumors by SPECT/CT [2]
1 | 40.14-64.08% | 53.65 | 1.27 | 64.08 | 1.44 | 52.89 | 75 | 1.28 | 40.14 | 2.21 | – | – | – | – | – | – | CC(C)[C@H](NC(=O)[C@@H]1CCCN1C(=O)[C@H](CCCNC(=N)N)NC(=O)[C@H](CS)NC(=O)[C@H](Cc1c[nH]c2ccccc12)NC(=O)[C@H](CCCNC(=N)N)NC(=O)[C@@H](Cc1ccccc1)NC(=O)[C@H](Cc1c[nH]cn1)NC(=O)[C@H](CCC(=O)O)NC(=O)[C@H](CS)NC(=O)[C@H](CS)NC(=O)[C@H](CCCNC(=N)N)NC(=O)[C@@H]1CC(=O)N[C@@H](CCCNC(=N)N)C(=O)NCC(=O)N[C@@H](CC(=O)O)C(=O)N[C@H](Cc2ccc(O)cc2)C(=O)N1)C(N)=O [^99mTc-RGD-Arg-(Arg^11)CCMSH, metal not drawn] (RGD[dY]DRCCEH[dF]RWCRPV-NH2; lactam N-5) | 90.9 | 21.2 | 9.15 | visualized clearly
2 | – | – | – | – | – | – | 85 | – | – | – | 69.29 ± 14.34 | 12.5 | 1.1 | 51 | 2.3 | 1.2 | CC(C)[C@H](NC(=O)[C@@H]1CCCN1C(=O)[C@H](CCCNC(=N)N)NC(=O)[C@H](CS)NC(=O)[C@H](Cc1c[nH]c2ccccc12)NC(=O)[C@H](CCCNC(=N)N)NC(=O)[C@@H](Cc1ccccc1)NC(=O)[C@H](Cc1c[nH]cn1)NC(=O)[C@H](CCC(=O)O)NC(=O)[C@H](CS)NC(=O)[C@H](CS)NC(=O)[C@H](CCCCN)NC(=O)[C@@H]1CC(=O)N[C@@H](CCCNC(=N)N)C(=O)NCC(=O)N[C@@H](CC(=O)O)C(=O)N[C@H](Cc2ccc(O)cc2)C(=O)N1)C(N)=O [^99mTc-RGD-Lys-(Arg^11)CCMSH, metal not drawn] (RGD[dY]DKCCEH[dF]RWCRPV-NH2; lactam N-5) | 87.8 | 29.2 | 12.2 | visualized clearly
